Data set [1] can be described thus: cutaneous [^3H]-4-hydroxy tamoxifen delivery in breast cancer patients: radioactivity in breast tissue, blood, urine. To be noted: for share of radioactivity in blood: 24 hours after cutaneous 4-hydroxy tamoxifen.
Experimental: (§1) The patients received [^3H]-labeled drug applied directly on the affected breasts at specified intervals ranging from 12 hours to 7 days before surgery to excise diseased tissue. Breast tissue from three regions: the tumor, tissue immediately surrounding the tumor, and normal tissue, was excised and immediately frozen in liquid nitrogen. Additionally, plasma and urine samples were obtained at scheduled intervals and frozen until analysis.
A further data set addresses T1, estrone sulphatase (Homo sapiens, UniProt P08842).
T1 construct: estrone sulphatase activity in mammary cancer cell lines; endogenous in cells
T1 sequence (P08842 22-583): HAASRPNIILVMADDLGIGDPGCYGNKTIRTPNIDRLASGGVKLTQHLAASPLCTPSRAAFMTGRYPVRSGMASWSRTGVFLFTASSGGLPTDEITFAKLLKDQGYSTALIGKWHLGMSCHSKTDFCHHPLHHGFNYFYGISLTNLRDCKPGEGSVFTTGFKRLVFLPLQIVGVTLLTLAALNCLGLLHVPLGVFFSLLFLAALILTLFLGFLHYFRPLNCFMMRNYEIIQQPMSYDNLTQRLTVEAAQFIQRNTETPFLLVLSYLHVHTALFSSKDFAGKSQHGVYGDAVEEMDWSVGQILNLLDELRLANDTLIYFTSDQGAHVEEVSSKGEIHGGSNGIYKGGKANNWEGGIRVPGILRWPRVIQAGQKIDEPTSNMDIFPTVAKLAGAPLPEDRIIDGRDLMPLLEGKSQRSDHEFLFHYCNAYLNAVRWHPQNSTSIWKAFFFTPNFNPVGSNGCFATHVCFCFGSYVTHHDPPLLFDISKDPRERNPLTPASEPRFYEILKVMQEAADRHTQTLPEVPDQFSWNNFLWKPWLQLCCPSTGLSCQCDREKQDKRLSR
To be noted: mammary cancer cell lines; cited from earlier work.

The conditions of data set [2]: human, in vivo.
Experimental: as §1
The conditions of data set [3]: topical application.
The conditions of data set [4]: cited from earlier work.
Data set [5] is described as follows: pharmacokinetics of topically applied 4-hydroxy tamoxifen gel in healthy premenopausal women. Type of data set: in vivo, human. To be noted: last administration, day 25 of second cycle; for t1/2: range. The procedure: Each participant applied the gel daily for the duration of two menstrual cycles.
At the end of a menstrual cycle, each patient received a single dose, after which serial blood samples were collected at 0, 0.5, 1, 1.5, 2, 3, 4, 6, 12, 18, 24, 36, 48, and 72 hours.
On the first day of the following menstruation, treatment, which consisted of daily application of the gel over two menstrual cycles, began. Blood samples were collected 24 hours following the morning application of gel on days 7, 20 and 25 of the first and second cycles. On the last day of administration, day 25 of the second menstrual cycle, serial blood samples were collected prior to application and at 0.5, 1, 1.5, 2, 3, 4, 6, 12, 18, 24, 36, 48, and 72 hours after application of the gel.

For data set [6] the following is noted: human, in vivo; cited from earlier work.
The test system of a further data set is TGF-β1. To be noted: cited from earlier work.
Another data set has as its system keloid fibroblast. To be noted: in vitro, cited from earlier work.
The conditions of data set [7]: Group 2 (0.5 mg/day gel) on the seventh day; Group 1 (oral tamoxifen 20 mg/day) on the fifth day; cited from earlier work.
Data set [8] concerns p53(−) normal human mammary epithelial cells. To be noted: cited from earlier work.
Setting [9] is: 12 hr after cutaneous Z-[^3H]-4-hydroxy tamoxifen to the affected breast.
Where [10] appears, read: 24 hr after cutaneous Z-[^3H]-4-hydroxy tamoxifen to the affected breast.
Setting [11] is: 36 hr after cutaneous Z-[^3H]-4-hydroxy tamoxifen to the affected breast.
Where [12] appears, read: Day 4 after cutaneous Z-[^3H]-4-hydroxy tamoxifen to the affected breast.
[13] abbreviates: Day 7 after cutaneous Z-[^3H]-4-hydroxy tamoxifen to the affected breast.

Read-outs that look alike come from different tables or passages of the source.

Consider `CC/C(=C(\c1ccc(O)cc1)c1ccc(OCCNC)cc1)c1ccccc1` [N-Desmethyl-4-Hydroxy Tamoxifen], for which the “% Metabolites in Breast Tissue” value is reported as 2% in data set [1] (setting [9]); 4% in data set [1] (setting [10]); 14% in data set [1] (setting [11]); 20% in data set [1] (setting [12]); 16% in data set [1] (setting [13]). Also, the “share of radioactivity in blood” value in [1] is reported as 18%.
In the case of `CCC(=C(c1ccc(O)cc1)c1ccc(OCCN(C)C)cc1)c1ccccc1` [4-hydroxy tamoxifen, 1-[4-(2-N-dimethylaminoethoxy)phenyl]-1-(4-hydroxyphenyl)-2-phenylbut-1-ene], the “inhibitory effect on estrone sulphatase activity” value on estrone sulphatase is reported as “significant inhibitory effect”. Moreover, in data set [2], the “metabolism in intracellular sites of breast tissue” value is given as “remained unmetabolized except for limited isomerization from the Z to the E form”; the “metabolites in the urine” value was “progressive increase of metabolites, mostly N-desmethyl-4-hydroxy tamoxifen and bisphenol”; the “radioactivity administered that showed in the blood” value was found to be 0.5%; the “share of radioactivity in blood” value turned out to be 68%. For the same compound, in [2], the “subcellular distribution in breast tissue” value is “concentrated predominantly in the cytosolic and nuclear fractions of breast tissue”; the “time of plateau of radioactivity in blood” value was in the range of 4 to 6 days. Moreover, the systemic effects entry in data set [3] was “no detectable laboratory or clinical evidence of systemic effects”. Besides, the rat liver carcinogenicity entry in data set [4] (in vivo) is “not”. Also, in data set [5] (0.5 mg/day, 20 mg/100 g gel), the AUC0-24 was determined as 0.2563 ± 0.2053 ng·h/mL; the “Cav = AUC0-24/24” value came out at 0.0107 ± 0.0085 ng/mL; the peak concentration (Cmax) (in general, the maximum level reached in the sampled fluid or tissue) was determined as 0.017 ± 0.0085 ng/mL; the tmax turned out to be 40 ± 81 h. For the same compound, in data set [5] (1 mg/day, 20 mg/100 g gel), the AUC0-24 amounted to 0.3009 ± 0.1908 ng·h/mL, the “Cav = AUC0-24/24” value stood at 0.0125 ± 0.0079 ng/mL, the peak concentration (Cmax) amounted to 0.021 ± 0.014 ng/mL and the tmax came to 24 ± 18 h. Also, in [5] (1 mg/day, 57 mg/100 g gel), the AUC0-24 came to 0.619 ± 0.466 ng·h/mL, the “Cav = AUC0-24/24” value was found to be 0.0258 ± 0.0194 ng/mL, the Cmax was determined as 0.0351 ± 0.0224 ng/mL and the tmax is 12.8 ± 14.9 h. In [5] (1 mg/day, 57 mg/100 g gel), the t1/2 entry is “(58-118) hr”. Also, in data set [5] (2 mg/day, 57 mg/100 g gel), the AUC0-24 was 0.998 ± 0.653 ng·h/mL, the “Cav = AUC0-24/24” value worked out at 0.0416 ± 0.0272 ng/mL, the Cmax turned out to be 0.0516 ± 0.0317 ng/mL and the tmax was 11.8 ± 12.3 h. Further, the t1/2 result in [5] (2 mg/day, 57 mg/100 g gel) is reported as “(49-101) hr”. Further, the “radioactivity in excised tissue and normal breast tissue surrounding the tumor” value in data set [6] is recorded as “contained radioactivity”.
As to `CC(C)(c1ccc(O)cc1)c1ccc(O)cc1` [Bisphenol], the “% Metabolites in Breast Tissue” value in data set [1] (setting [9]) is 1%; in data set [1] (setting [10]) it was 2%; in data set [1] (setting [11]) it was 3%; in [1] (setting [12]), 8%; in data set [1] (setting [13]), 8%. Besides, in [1], the “share of radioactivity in blood” value was found to be 11%.
Consider `CC/C(=C(/c1ccc(O)cc1)c1ccc(OCCN(C)C)cc1)c1ccccc1` (single isomer, unassigned) [E isomer], for which, in data set [1] (day 7 after cutaneous Z-[^3H]-4-hydroxy tamoxifen), the “percentage of isomer in breast tissue radioactivity” value was 33%.
Regarding `CC/C(=C(\c1ccc(O)cc1)c1ccc(OCCN(C)C)cc1)c1ccccc1` [Z-4-hydroxy tamoxifen], in [2], the “percentage of isomer in breast tissue radioactivity” value came out at 32%.
For `CC/C(=C(\c1ccccc1)c1ccc(OCCN(C)C)cc1)c1ccccc1` [tamoxifen], the “inhibitory effect on estrone sulphatase activity” value at estrone sulphatase is “little or no effect”. Moreover, in the data set with TGF-β1, the TGF-β1 expression result is listed as “downregulating TGF-β1 expression”. Besides, in the data set with keloid fibroblast (keloid fibroblasts), the collagen production entry is given as “decreases collagen production”. Besides, the keloid fibroblast proliferation entry with keloid fibroblast is reported as “inhibits keloid fibroblast proliferation”. The rat liver carcinogenicity result in data set [4] was “potent rat liver carcinogen”. In addition, the “side effects reported by one person of the group” value in [7] is “hot flashes and mild vaginitis”. In data set [8], the initiation of apoptosis entry is reported as “initiates apoptosis”. For the same compound, the “time of plateau of radioactivity in blood” value in data set [1] (cutaneous [^3H]-labeled drug) came to 2 days. For the same compound, in data set [1] (cutaneous [^3H]-labeled drug, 80 μCi), the “retention in the breast” value is “shorter and far weaker”.

Values taken from patent US7767717B2 (priority 2003, dated 2010).
